Results published in US20090118258A1, “COMBINATION THERAPY COMPRISING ANGIOTENSIN CONVERTING ENZYME INHIBITORS AND VASOPRESSIN RECEPTOR ANTAGONISTS” (priority 2007, published 2009).

How the values were obtained:
rat remnant kidney model [1] = test: Rat remnant kidney model of nephropathy (renal mass reduction, RMR); type: in vivo; conditions: for number of ED 1 positive cells per field (monocytes/macrophages in renal interstitium): termination, vehicle 63±4, not statistically significant; for Mortality rate: rat, in vivo
Excerpt: The rat remnant kidney model is an animal model of severe progressive renal failure. In this model, a state of severe progressive renal failure is produced by renal mass reduction (RMR) through removal of one kidney and ligation of several branches of the renal artery, resulting in infarction and loss of function of two thirds of the remaining kidney. The procedure creates the conditions of severe hypertension, proteinuria, progressive renal function deterioration, tubulointerstitial damage and glomerulosclerosis (Olson J L, Hostetter T H, Rennke H G, Brenner B M, Venkatachalam M A: “Altered glomerular permselectivity and progressive sclerosis following extreme ablation of renal mass”. Kidney Int 22:112-126, 1982).
Nephropathy is evident as a progressively increasing amount of protein in urine, increases in serum creatinine and increases in arterial pressure. In addition, severe sclerosis of the glomeruli, inflammatory cell infiltration and tubular damage are measurable through histological analysis within 3 months of renal mass reduction (RMR). These measures form the basis for determining efficacy in the model. Urine protein, serum creatinine and arterial pressure are similarly measured in humans to determine impact of treatments on disease progression.
The aim of this study was to evaluate the effects of Compound 1 compared to an ACE inhibitor (enalapril), as well as the combination treatment with Compound 1 and enalapril, on proteinuria and renal disease progression in this model. The effectiveness of these agents has been associated with reductions in proteinuria, slowing of the rate of rise in serum creatinine and reduction in glomerular sclerosis and thus slowing of the progression to end stage renal failure.
(§1) Treatments were started 21 days after RMR, when animals already had overt nephropathy. Treatment groups (n=8/group, except enalapril n=7) included vehicle; Compound 1 at 10 mg/kg/d; Compound 1 at 30 mg/kg/d; enalapril at 15 mg/mL (in drinking water); and enalapril at 15 mg/mL+Compound 1 at 30 mg/kg/d. All compounds were administered in drinking water. An additional sham-operated untreated group was also included. Measurements were made at 21 d after RMR but before treatment, and at one and two months of treatment. […] Since the increased mortality was not dose dependent and was not apparent in the group receiving combination treatment with Compound 1 and enalapril (Table 1), the effect is likely due to chance and the known variability in the severity of renal failure in this model.

rat remnant kidney model [2] = test: Blood pressure in rat remnant kidney model; type: in vivo; conditions: Compound 1 10 and 30 mg/kg/d; enalapril; combination enalapril + Compound 1 30 mg/kg/d; FIG. 3
Procedure: as §1
Blood pressure reduction can contribute to slowing the progression of renal disease in this animal model as well as in humans.

rat remnant kidney model [3] = test: Water intake and diuresis in remnant kidney model; type: in vivo; conditions: mean ± S.E.
Procedure: Treatments were started 21 days after RMR, when animals already had overt nephropathy. […] All compounds were administered in drinking water. An additional sham-operated untreated group was also included. Measurements were made at 21 d after RMR but before treatment, and at one and two months of treatment. […] Since the increased mortality was not dose dependent and was not apparent in the group receiving combination treatment with Compound 1 and enalapril (Table 1), the effect is likely due to chance and the known variability in the severity of renal failure in this model.
(§2) Water intake and diuresis was increased in all treatment groups following RMR (Table 2). […] There were no differences in serum electrolytes in any of the treatment groups at the termination of the experiment (Table 2).

rat remnant kidney model [4] = test: Serum and urine electrolytes in remnant kidney model; type: in vivo; conditions: enalapril alone, combination
Procedure: as §1, §2
Urinary Na excretion was reduced in the vehicle treated RMR rats. […] Urinary K and Cl excretion were reduced in rats with RMR compared to control rats.

[5] = test system: streptozotocin-induced diabetic rat; test: Streptozotocin-induced diabetic rat model of nephropathy; type: in vivo
Procedure: The streptozotocin-induced diabetic rat is a model of Type I diabetes that develops early renal dysfunction manifested as increased urine albumin excretion. One week after administration of streptozotocin, 65 mg/kg, i.p., rats were assigned to the following treatment groups: no treatment; Compound 1 at 30 mg/kg/d; or enalapril at 30 mg/kg/d. Both compounds were dosed in drinking water for 12 weeks. Mortality among the treatment groups at 12 weeks was 1/10 in the untreated and Compound 1-treated groups and 3/10 in the enalapril-treated group. As a result of the diabetic state, urine volumes were nearly 10 times that of non-diabetic rats. […] The fraction of filtered sodium and potassium excreted was unaffected by either Compound 1 and enalapril.

Type I diabetic rats = test: Arterial pressure and heart rate in Type I diabetic rats after seven days oral administration; type: in vivo, rat; conditions: oral administration for seven days
Procedure: Oral administration of Compound 1 for seven days in Type I diabetic rats had no effect on mean arterial pressure or heart rate over 48 h in diabetic rats. […] Oral administration of enalapril for seven days had no effect on arterial pressure over 48 h in diabetic rat

db/db mice = type: in vivo
Procedure: Male db/db mice, a genetic model of type 2 diabetes, develop early renal dysfunction manifested as increased urine albumin excretion. At 9 weeks of age diabetes was confirmed by measurement of blood glucose (>300 mg/dL) and animals assigned to one of three treatment groups (n=12/group): untreated, Compound 1, 30 mg/kg/d and enalapril, 30 mg/kg/d. Compounds were dosed in drinking water for 16 weeks. There was no mortality in any of the treatment groups. Body weights for animals were similar at the beginning of the study.

[6] = 1 and 2 months of treatment, Compound 1 10 and 30 mg/kg/d, enalapril 15 mg/mL, combination enalapril + Compound 1 30 mg/kg/d, FIG. 1
[7] = 1 month of treatment, Compound 1 10 mg/kg/d
[8] = 1 month of treatment, Compound 1 30 mg/kg/d
[9] = 2 month of treatment, Compound 1 10 mg/kg/d
[10] = 2 month of treatment, Compound 1 30 mg/kg/d
[11] = basal (before RMR and treatment), group Compound 1 10 mg/kg/d
[12] = basal (before RMR and treatment), group Compound 1 30 mg/kg/d
[13] = pre-treatment (21 d after RMR), group Compound 1 10 mg/kg/d
[14] = pre-treatment (21 d after RMR), group Compound 1 30 mg/kg/d
[15] = both doses of Compound 1, reduced in RMR rats vs control
[16] = 30 mg/kg/d in drinking water for 12 weeks

`COc1cc(C(=O)N2CC[C@]3(C=C(C(=O)O)CC3)Cc3ccccc32)ccc1NC(=O)c1cc(F)ccc1Cl` [Compound 1] was tested, and the serum creatinine (rat remnant kidney model [1]; [6]) was “reduced urine protein and serum creatinine when administered alone but not to the same extent as enalapril”, the urine protein (rat remnant kidney model [1]; [6]) was “reduced urine protein and serum creatinine when administered alone but not to the same extent as enalapril” and the “number of ED 1 positive cells per field (monocytes/macrophages in renal interstitium)” value (rat remnant kidney model [1]; Compound 1 10 mg/kg/d) was 48±4 positive cells per field. The “number of ED 1 positive cells per field (monocytes/macrophages in renal interstitium)” value (rat remnant kidney model [1]; Compound 1 30 mg/kg/d) was 49±10 positive cells per field, the “mortality (in words)” value (rat remnant kidney model [1]; Compound 1 10 and 30 mg/kg/d alone, combination Compound 1 30 mg/kg/d + enalapril, not dose dependent, judged due to chance) was “apparent excess mortality” and the Mortality rate (rat remnant kidney model [1]; 10 mg/kg/day, 1 month) was 2/8. The Mortality rate (rat remnant kidney model [1]; 10 mg/kg/day, 2 months) was 4/8, the Mortality rate (rat remnant kidney model [1]; 30 mg/kg/day, 1 month) was 2/8 and the Mortality rate (rat remnant kidney model [1]; 30 mg/kg/day, 2 months) was 3/8. For the same compound, the “percentage of sclerotic glomeruli” value (rat remnant kidney model [1]; renal histology at termination, Compound 1 10 or 30 mg/kg/d, enalapril, combination enalapril + Compound 1 30 mg/kg/d, FIG. 2) was “tended to decrease the percentage of sclerotic glomeruli compared with vehicle, but this was not statistically significant”, the arterial pressure (rat remnant kidney model [2]) was “significant reductions in arterial pressure compared to vehicle” and the diuresis (rat remnant kidney model [3]; [7]) was 47 ± 2 mL/24 h. The water intake (rat remnant kidney model [3]; [7]) was 53 ± 9° mL/24 h, the diuresis (rat remnant kidney model [3]; [8]) was 41 ± 4 mL/24 h and the water intake (rat remnant kidney model [3]; [8]) was 60 ± 7 mL/24 h. It also gave a diuresis (rat remnant kidney model [3]; [9]) of 43 ± 5 mL/24 h, a water intake (rat remnant kidney model [3]; [9]) of 62 ± 6 mL/24 h and a diuresis (rat remnant kidney model [3]; [10]) of 49 ± 8 mL/24 h. The water intake (rat remnant kidney model [3]; [10]) was 60 ± 16 mL/24 h, the diuresis (rat remnant kidney model [3]; [11]) was 19 ± 1 mL/24 h and the water intake (rat remnant kidney model [3]; [11]) was 43 ± 5 mL/24 h. For the same compound, the diuresis (rat remnant kidney model [3]; [12]) was 19 ± 1 mL/24 h, the water intake (rat remnant kidney model [3]; [12]) was 47 ± 3 mL/24 h and the diuresis (rat remnant kidney model [3]; [13]) was 44 ± 3 mL/24 h. For the same compound, the water intake (rat remnant kidney model [3]; [13]) was 66 ± 5 mL/24 h, the diuresis (rat remnant kidney model [3]; [14]) was 55 ± 4 mL/24 h and the water intake (rat remnant kidney model [3]; [14]) was 76 ± 6 mL/24 h. For the same compound, the “urinary Na excretion” value (rat remnant kidney model [4]; both doses of Compound 1 (10, 30 mg/kg/d), reduced in vehicle treated RMR rats) was “tended to normalize urinary Na excretion to similar extents”, the “urinary Cl excretion” value (rat remnant kidney model [4]; [15]) was “tended to normalize urinary K and Cl excretion” and the “urinary K excretion” value (rat remnant kidney model [4]; [15]) was “tended to normalize urinary K and Cl excretion”. For the same compound, the “fraction of filtered sodium and potassium excreted” value [5, 16] was “unaffected”, the “urine endpoints: daily volume output, osmolarity, chloride, creatinine, sodium or potassium concentrations, clearances or excretion values” [5, 16] was “not significantly altered” and the urine albumin excretion ([5]; 30 mg/kg/d in drinking water, compared to vehicle treated controls, FIG. 4) was “significant decrease”. The serum albumin concentrations ([5]; 30 mg/kg/d, compared to vehicle treated controls) was “not statistically significant, serum albumin concentrations increased”, the “kidney weight or renal glomerular or mesangial morphology” value ([5]; 30 mg/kg/d, compared to vehicle treated diabetic rats) was “no significant effects” and the “urine free water clearance” value ([5]; Compound 1 30 mg/kg/d) was “trend toward increased urine free water clearance”. The serum osmolarity ([5]; Compound 1 30 mg/kg/d, compared to vehicle treated controls) was “decreased significantly”, the “(mean) arterial pressure over 48 h” value (Type I diabetic rats) was “no effect” and the “heart rate over 48 h” value (Type I diabetic rats) was “no effect”. For the same compound, the “urinary albumin excretion (in words)” value (db/db mice; 30 mg/kg/d in drinking water for 16 weeks, FIG. 5) was “unaffected”, the “mesangial surface area or percentage of glomerular area occupied by mesangium” value (db/db mice; 30 mg/kg/d, compared to vehicle-treated animals) was “No significant differences” and the urine osmolarity (db/db mice; 30 mg/kg/d, throughout 16 weeks of dosing) was “unaffected by treatment”.
